This note sets out measurements from patent US7208178B2, “Polymorphs of sodium 4-[(4-chloro-2-hydroxybenzoyl) amino] butanoate” (Emisphere Technologies, Inc., priority 2000, dated 2007).

A short description of the series: Solid-state stability of amorphous form at ambient conditions. The format is physicochemical. Conditions: amorphous form prepared by solidification, from solution or lyophilization.

As to `O=C(O)CCCNC(=O)c1ccc(Cl)cc1O` [amorphous form, sodium 4-[(4-chloro-2-hydroxybenzoyl)amino]butanoate], the “stability at ambient conditions” value is “unstable at ambient conditions and transforms to Form II”.
